# Assay results as given in patent US20070166547A1, “Use of a layer consisting of hydrophobic linear, or two-dimensional polycyclic aromatics as a barrier layer or an encapsulation and electric components constructed with a layer of this type and comprising organic polymers” (priority 2003, published 2007).
# Tests used:
# [1] = Polarographic study of electrochemical reduction (electrochemical activity); type: physicochemical; settings: for half-wave potential more positive on reverse stroke than on forward stroke: reverse stroke vs forward stroke; for number of electrons participating in the reduction: calculated with the Geirovsky-Ilkovich equation; for i, mkA (polarographic wave current) / −E1/2, V (half-wave potential vs SCE): 37° C., forward trace, average for the group; for i, mkA (polarographic wave current): 9·10^−4 M
# Description: The study was carried out on a general-purpose polarograph PU-1 with a two-coordinate recorder of the “LKD” type using a three-electrode thermostatically controlled polarographic cell and mercury dripping electrode (MDE) with forced separation of the drop and a dropping period of 0.5 second. A platinum wire was used as an auxiliary electrode and a saturated calomel electrode (SCE) was used as a control electrode.
# 2.0% solutions of sodium chloride having pH 7.0, 7.2, 7.4, 7.6 were used as a background; the pH values of the background solution were corrected by a solution of sodium hydroxide. The polarographic cell was filled with 5.0 ml of the background solution and for 5 minutes was purged with nitrogen for removing the dissolved oxygen. Then 0.5 ml of solution of the studied substance was added to the background solution, and the polarogram was recorded as a polarographic wave. The concentration of the compounds in the polarographic cell was 9·10^−4 M.
# The pH was measured on the pH-meter with an accuracy of ±0.05 pH units. The polarographic measurements were carried out at a temperature of 37° C. The recording of polarograms of the investigated materials was effected under conditions of DC current at a scanning rate of the potential 10.0 mV/s with a active scanning stroke from a potential 0 to −0.5 V and sweep retrace from a −0.5 V to 0. The electric-current sensitivity was 5.0 mkA. The scale by the coordinate of the potentials was 50.0 mV/cm. The values of potentials of the half-wave E1/2 of the investigated materials are given with respect to the SCE potential.
# The polarogram parameters such as a limiting current ilim and E1/2 were determined by the graphic method. The number of electrons participating in the reaction was calculated on the basis of the analysis of the polarographic wave using the Geirovsky-Ilkovich equation.
# [2] = Chronic toxicity, rectal suppositories: indexes of peripheral blood; settings: male rats; for Basophiles / Juveniles: 1 month/2 months (one value given)
# Description: The experiments were conducted on inbred rats. The experimental animals were selected in groups by a method of random sampling taking into account the body mass as a determining index; 24 males or 24 females for one preparation from compounds 2, 15, 23, 34, 37 investigated in one dose.
# Two doses of preparations used in the experiments: 50 mg/kg and 500 mg/kg. Before the administration, the suppositories were softened by heating in a glass water bath at a temperature of 38-39° C., the soft mass was collected in tuberculin syringe in a volume of 1 ml, a needle with oliva was attached to the syringe, and the preparatory mass was introduced into the rectum of the animal for a depth of 1.5-2.0 cm. The animals of the control group were administered with sterile medical liquid paraffin in a volume corresponding to the volume of the investigated suppository. A complete course of administration of drugs to the animals was two months. A complex of laboratory diagnostic investigations was carried out one month after the beginning of the administration of the preparation to the animal—in a middle of the course (8 animals), two months after ending the course (8 animals) and three months after ending the recovery period of one month (8 animals). The mass of the body of the rats in the first month of administration of the preparation was determined weekly, and then once in two weeks. On the basis of the dynamics of an index of the mass of the animal body, the volume of preparation being administered was corrected taking into account the test dose.
# [3] = suppositories 50 mg/kg, 1 month
# [4] = suppositories 50 mg/kg, 2 months
# [5] = suppositories 500 mg/kg, 1 month
# [6] = suppositories 500 mg/kg, 2 months
compound,measurement,setting,value
"O=c1[nH][nH]c(=O)c2nccnc12.[Na] [Compound 26, sodium salt of pyrazine[2,3-d]-6H-pyridazine-5,8-dione]",half-wave potential more positive on reverse stroke than on forward stroke,[1],27.0 mV
"disodium salt of 3-Kap ? OKC ? -7-(β-D-ribofuranosile)pyrido[2,3-d]-6H-pyridazine-5,8-dione [Compound 5]",number of electrons participating in the reduction,[1],3.72
same,"i, mkA (polarographic wave current)",[1]; pH 7.0,0.26 ± 0.04 mkA
same,"−E1/2, V (half-wave potential vs SCE)",[1]; pH 7.0,0.11 ± 0.02 V
same,"i, mkA (polarographic wave current)",[1]; pH 7.2,0.31 ± 0.02 mkA
same,"−E1/2, V (half-wave potential vs SCE)",[1]; pH 7.2,0.11 ± 0.03 V
same,"i, mkA (polarographic wave current)",[1]; pH 7.4,0.27 ± 0.03 mkA
same,"−E1/2, V (half-wave potential vs SCE)",[1]; pH 7.4,0.105 ± 0.01 V
same,"i, mkA (polarographic wave current)",[1]; pH 7.6,0.30 ± 0.01 mkA
same,"−E1/2, V (half-wave potential vs SCE)",[1]; pH 7.6,0.105 ± 0.02 V
same,half-wave potential more positive on reverse stroke than on forward stroke,[1],25.0 mV
"O=C([O-])c1ncnc2c(=O)n([C@@H]3O[C@H](CO)[C@@H](O)[C@H]3O)[nH]c(=O)c12.[Na+] [Compound 34, sodium salt of 4-carboxy-7-(β-D-ribofuranosile)pyrimido[4,5-D]-6H-pyridazine-5,8-dione]",Average volume of erythrocytes,[2]; [3],81.6 ± 1.9 Mkm^3
same,"Coagulation, time",[2]; [3],148 ± 16 s
same,Eosinophiles,[2]; [3],3.5 ± 1.0%
same,Erythrocytes,[2]; [3],5.6 ± 0.1 mln/mm^3
same,Haematocrite,[2]; [3],46.9 ± 1.1%
same,Hemoglobin,[2]; [3],10.6 ± 0.1 mmol/L
same,Leukocyte,[2]; [3],15.9 ± 1.3 thousand/mm^3
same,REE,[2]; [3],1.8 ± 0.5 mm/h
same,Reticulocytes,[2]; [3],2.7 ± 0.1%
same,Stab neutrophil,[2]; [3],1.0 ± 0.4%
same,Thrombocytes,[2]; [3],670 ± 23
same,Basophiles,[2]; suppositories 50 mg/kg,0%
same,Juveniles,[2]; suppositories 50 mg/kg,0%
same,Average volume of erythrocytes,[2]; [4],76.7 ± 1.9 Mkm^3
same,"Coagulation, time",[2]; [4],321 ± 10 s
same,Eosinophiles,[2]; [4],4.1 ± 0.4%
same,Erythrocytes,[2]; [4],6.1 ± 0.2 mln/mm^3
same,Haematocrite,[2]; [4],47.5 ± 1.2%
same,Hemoglobin,[2]; [4],11.1 ± 0.2 mmol/L
same,Leukocyte,[2]; [4],17.8 ± 1.4 thousand/mm^3
same,REE,[2]; [4],1.7 ± 0.3 mm/h
same,Reticulocytes,[2]; [4],2.9 ± 0.2%
same,Stab neutrophil,[2]; [4],1.8 ± 0.5%
same,Thrombocytes,[2]; [4],610 ± 15
same,Average volume of erythrocytes,[2]; [5],84.1 ± 1.3 Mkm^3
same,Eosinophiles,[2]; [5],3.0 ± 0.9%
same,Erythrocytes,[2]; [5],5.6 ± 0.2 mln/mm^3
same,Haematocrite,[2]; [5],48.1 ± 1.5%
same,Hemoglobin,[2]; [5],10.6 ± 0.3 mmol/L
same,Leukocyte,[2]; [5],16.9 ± 1.0 thousand/mm^3
same,REE,[2]; [5],2.0 ± 0.4 mm/h
same,Reticulocytes,[2]; [5],3.2 ± 0.2%
same,Stab neutrophil,[2]; [5],0.9 ± 0.2%
same,Thrombocytes,[2]; [5],682 ± 24
same,Basophiles,[2]; suppositories 500 mg/kg,0%
same,Juveniles,[2]; suppositories 500 mg/kg,0%
same,Average volume of erythrocytes,[2]; [6],83.8 ± 1.5 Mkm^3
same,"Coagulation, time",[2]; [6],312 ± 9 s
same,Eosinophiles,[2]; [6],3.9 ± 1.4%
same,Erythrocytes,[2]; [6],6.6 ± 0.1 mln/mm^3
same,Haematocrite,[2]; [6],53.1 ± 1.6%
same,Hemoglobin,[2]; [6],12.4 ± 0.4 mmol/L
same,Leukocyte,[2]; [6],22.1 ± 1.1 thousand/mm^3
same,REE,[2]; [6],1.8 ± 0.2 mm/h
same,Reticulocytes,[2]; [6],3.5 ± 0.3%
same,Stab neutrophil,[2]; [6],1.4 ± 0.3%
same,Thrombocytes,[2]; [6],631 ± 26
"O=c1[nH]n([C@@H]2O[C@H](CO)[C@@H](O)[C@H]2O)c(=O)c2ncnc(O)c12.[Na] [Compound 33, sodium salt of 4-hydroxy-7-(β-D-ribofuranosile)pyrimido[4,5-d]-6H-pyridazine-5,8-dione]",number of electrons participating in the reduction,[1],3.5
same,"i, mkA (polarographic wave current)",[1]; pH 7.0,0.30 ± 0.05 mkA
same,"−E1/2, V (half-wave potential vs SCE)",[1]; pH 7.0,0.08 ± 0.02 V
same,"i, mkA (polarographic wave current)",[1]; pH 7.2,0.26 ± 0.02 mkA
same,"i, mkA (polarographic wave current)",[1]; pH 7.4,0.30 ± 0.03 mkA
same,"−E1/2, V (half-wave potential vs SCE)",[1]; pH 7.4,0.085 ± 0.02 V
same,"i, mkA (polarographic wave current)",[1]; pH 7.6,0.30 ± 0.02 mkA
same,"−E1/2, V (half-wave potential vs SCE)",[1]; pH 7.6,0.09 ± 0.02 V
same,half-wave potential more positive on reverse stroke than on forward stroke,[1],27.0 mV
"sodium salt of 7-(β-O-ribofuranosile)pyrido[2,3-1]-6H-pyridazine-5,8-dione sodium salt [Compound 1]",number of electrons participating in the reduction,[1],3.72
same,"i, mkA (polarographic wave current)",[1]; pH 7.0,0.26 ± 0.04 mkA
same,"−E1/2, V (half-wave potential vs SCE)",[1]; pH 7.0,0.11 ± 0.02 V
same,"i, mkA (polarographic wave current)",[1]; pH 7.2,0.31 ± 0.02 mkA
same,"−E1/2, V (half-wave potential vs SCE)",[1]; pH 7.2,0.11 ± 0.03 V
same,"i, mkA (polarographic wave current)",[1]; pH 7.4,0.27 ± 0.03 mkA
same,"−E1/2, V (half-wave potential vs SCE)",[1]; pH 7.4,0.105 ± 0.01 V
same,"i, mkA (polarographic wave current)",[1]; pH 7.6,0.30 ± 0.01 mkA
same,"−E1/2, V (half-wave potential vs SCE)",[1]; pH 7.6,0.105 ± 0.02 V
same,half-wave potential more positive on reverse stroke than on forward stroke,[1],25.0 mV
"potassium salt of 3-bromine-pyrazine[2,3-Cl]-6H-pyridazine-5,8-dione [Compound 27]",number of electrons participating in the reduction,[1],3.72
same,"i, mkA (polarographic wave current)",[1]; pH 7.0,0.32 ± 0.03 mkA
same,"−E1/2, V (half-wave potential vs SCE)",[1]; pH 7.0,0.16 ± 0.02 V
same,"i, mkA (polarographic wave current)",[1]; pH 7.2,0.33 ± 0.04 mkA
same,"−E1/2, V (half-wave potential vs SCE)",[1]; pH 7.2,0.19 ± 0.02 V
same,"i, mkA (polarographic wave current)",[1]; pH 7.4,0.34 ± 0.03 mkA
same,"−E1/2, V (half-wave potential vs SCE)",[1]; pH 7.4,0.175 ± 0.01 V
same,"i, mkA (polarographic wave current)",[1]; pH 7.6,0.34 ± 0.02 mkA
same,"−E1/2, V (half-wave potential vs SCE)",[1]; pH 7.6,0.16 ± 0.015 V
same,half-wave potential more positive on reverse stroke than on forward stroke,[1],20.0 mV
"COP(=O)(OC)C(C)(C)CC(C)=O [dimephosphon, dimethyl ester of 1,1-dimethyl-3-oxybuthyl of phosphonic acid, reference compound]",number of electrons participating in the reduction,[1],1.6
same,"i, mkA (polarographic wave current)",[1]; pH 7.0,0.10 ± 0.03 mkA
same,"−E1/2, V (half-wave potential vs SCE)",[1]; pH 7.0,0.175 ± 0.01 V
same,"i, mkA (polarographic wave current)",[1]; pH 7.2,0.12 ± 0.03 mkA
same,"−E1/2, V (half-wave potential vs SCE)",[1]; pH 7.2,0.17 ± 0.02 V
same,"i, mkA (polarographic wave current)",[1]; pH 7.4,0.11 ± 0.02 mkA
same,"−E1/2, V (half-wave potential vs SCE)",[1]; pH 7.4,0.18 ± 0.01 V
same,"i, mkA (polarographic wave current)",[1]; pH 7.6,0.11 ± 0.02 mkA
same,"−E1/2, V (half-wave potential vs SCE)",[1]; pH 7.6,0.18 ± 0.01 V
same,half-wave potential more positive on reverse stroke than on forward stroke,[1],50.0 mV
